Patent publication US20040241871A1, “Method and apparatus for analyzing endocrine-distrupting substances in vital sample” (priority 2001, published 2004)

Format: in vivo, human
Settings: for Concentration of Chlordane in Vital Sample, Cord Serum / Concentration of Chlordane in Vital Sample, Maternal Serum / Concentration of Chlordane in Vital Sample, Mother's Milk / Concentration of Endocrine-Disrupting Substance in Vital Sample, Cord Serum / Concentration of Endocrine-Disrupting Substance in Vital Sample, Maternal Serum / Concentration of Endocrine-Disrupting Substance in Vital Sample, Mother's Milk: in fat; for Concentration of Chlordane in Vital Sample, Cord Serum / Concentration of Chlordane in Vital Sample, Maternal Serum / Concentration of Chlordane in Vital Sample, Mother's Milk: individual chlordanes; for PCB isomer value in the cord serum as compared with the maternal serum: cord serum vs maternal serum, confidence coefficient: 95% or more; for Concentration of Endocrine-Disrupting Substance in Vital Sample, Cord Serum / Concentration of Endocrine-Disrupting Substance in Vital Sample, Maternal Serum / Concentration of Endocrine-Disrupting Substance in Vital Sample, Mother's Milk: samples from 10 mothers
Text: Maternal serum, cord serum and mother's milk samples collected from 10 mothers were used (30 samples in total). These samples were used for the analysis test after obtaining the consent from the subjects.
The GPC column used was Shodex (registered trademark) EV-200AC Column (polystyrene-base hard gel column having an inner diameter of 2 mm and a length of 150 mm) manufactured by Showa Denko K. K.
A programmed temperature vaporizer (PTV) was equipped and in the GC part, an inactivated silica tube (2 m (length)×0.53 mm (inner diameter)) and capillary columns DB-5 (0.5 m (length)×0.25 mm (inner diameter), film thickness: 0.25 μm; and 60 m (length)×0.25 mm (inner diameter), film thickness: 0.1 μm), both manufactured by J & W Scientific, were used. After the injection of solution, the temperature was kept at 83° C. (for 5 minutes) and then elevated to 172° C. at 1° C./min and further to 270° C. at 50° C./min. The measurement was performed at 280° C.
In the main test below, the internal standard substances used were 3 kinds of PCBs marked by ^13C (3,3′,4,4′-tetrachlorobiphenyl, 3,3′,4,4′,5-pentachlorobiphenyl, 3,3′,4,4′,5,5′-hexachlorobiphenyl), hexachlorobenzene (HCB) and p,p′-dichlorodiphenyl dichloroethylene (DDE).
The cord serum (8 ml), the maternal serum (4 ml) and the mother's milk (2 ml) each was subjected to fat extraction according to the method by Patterson et al. More specifically, the sample was charged into a separating funnel, the internal standard substance was added, and then saturated ammonium sulfate, ethanol and hexane were added at a ratio of about 1:1:3. After shaking to cause separation into two layers, the aqueous layer was transferred to a different separating funnel and hexane was added thereto. After shaking to cause separation into two layers, the hexane layer was combined with the organic layer obtained at the first separation, washed with water, dried over anhydrous sodium sulfate, filtered, concentrated and dried. Thereafter, the total weight of fat was measured. The average fat amount was 0.197% in the cord serum, 0.895% in the maternal serum and 3.04% in the mother's milk.
Acetone/cyclohexane (3:7) (v/v) was passed through the GPC column at a flow rate of 0.1 ml/min and 20 μl of a solution obtained by dissolving the fat extracted above in 50 to 100 μl of a solvent having the same composition was injected into the GPC.
Based on the results in the preliminary measurement, the elution composition of 0 to 3.2 minutes after the injection of sample was discarded and the fraction of 3.2 to 5.2 minutes was collected in a sample loop (storage amount: 200 μl) and introduced into GC/MS at 5.2 to 7.5 minutes.
The results are shown in Table 1 together with analysis results of other endocrine-disrupting substances.

SMILES | Concentration of Chlordane in Vital Sample, Maternal Serum | Concentration of Chlordane in Vital Sample, Mother's Milk | Concentration of Endocrine-Disrupting Substance in Vital Sample, Cord Serum | Concentration of Endocrine-Disrupting Substance in Vital Sample, Maternal Serum | Concentration of Endocrine-Disrupting Substance in Vital Sample, Mother's Milk | other results
ClC1=C(Cl)[C@]2(Cl)[C@H]3[C@H]([C@H](Cl)C(Cl)[C@@H]3Cl)[C@@]1(Cl)C2(Cl)Cl (stereo partly drawn) [cis-Nonachlor] | 1.54 ppb | 2.25 ppb |  |  |  | Concentration of Chlordane in Vital Sample, Cord Serum: 0.91 ppb
ClC1=C(Cl)[C@]2(Cl)[C@H]3[C@H]([C@H](Cl)[C@]4(Cl)O[C@H]34)[C@@]1(Cl)C2(Cl)Cl [Oxychlordane] | 6.30 ppb | 6.49 ppb |  |  |  | Concentration of Chlordane in Vital Sample, Cord Serum: 6.66 ppb
Clc1ccc(-c2cc(Cl)c(Cl)c(Cl)c2Cl)c(Cl)c1Cl [#170] |  |  |  |  |  | PCB isomer value in the cord serum as compared with the maternal serum: significantly low
ClC1=C(Cl)C2(Cl)C3C(Cl)C=CC3C1(Cl)C2(Cl)Cl (stereo not drawn) [Heptachlor] |  |  | 1.20 ppb | 1.17 ppb | 0.30 ppb | 
Clc1cc(Cl)c(-c2cc(Cl)c(Cl)c(Cl)c2)c(Cl)c1 [#168] |  |  |  |  |  | PCB isomer value in the cord serum as compared with the maternal serum: significantly low
ClC1=C(Cl)[C@]2(Cl)C3C(Cl)C(Cl)CC3[C@@]1(Cl)C2(Cl)Cl (stereo partly drawn) [γ-Chlordane] | 1.43 ppb | 1.66 ppb |  |  |  | Concentration of Chlordane in Vital Sample, Cord Serum: 1.64 ppb
Clc1ccc(-c2cc(Cl)c(Cl)cc2Cl)cc1Cl [#118] |  |  |  |  |  | PCB isomer value in the cord serum as compared with the maternal serum: significantly low
ClC1C(Cl)C(Cl)C(Cl)C(Cl)C1Cl (stereo not drawn) [HCH, hexachlorocyclohexane] |  |  | 189.54 ppb | 271.49 ppb | 315.58 ppb | 
ClC1=C(Cl)[C@]2(Cl)[C@H]3[C@H]([C@H](Cl)C(Cl)[C@@H]3Cl)[C@@]1(Cl)C2(Cl)Cl (stereo partly drawn) [trans-Nonachlor] | 17.08 ppb | 19.58 ppb |  |  |  | Concentration of Chlordane in Vital Sample, Cord Serum: 16.35 ppb
ClC1=C(Cl)[C@]2(Cl)[C@H]3C[C@H](Cl)[C@H](Cl)[C@H]3[C@@]1(Cl)C2(Cl)Cl (relative stereo) [cis-Chlordane] | 0.86 ppb | 0.93 ppb |  |  |  | 
Clc1c(Cl)c(Cl)c(Cl)c(Cl)c1Cl [HCB, hexachlorobenzene] |  |  | 14.14 ppb | 15.71 ppb | 14.08 ppb | 
ClC1=C(Cl)C2(Cl)C3C4OC4C(Cl)C3C1(Cl)C2(Cl)Cl (stereo not drawn) [HCE, heptachloroepoxide] |  |  | 1.55 ppb | 2.61 ppb | 3.06 ppb | 
ClC(Cl)=C(c1ccc(Cl)cc1)c1ccc(Cl)cc1 [DDE, p,p′-dichlorodiphenyl dichloroethylene] |  |  | 278.63 ppb | 314.48 ppb | 343.62 ppb | 
Clc1cc(Cl)c(-c2cc(Cl)c(Cl)cc2Cl)cc1Cl [#153] |  |  |  |  |  | PCB isomer value in the cord serum as compared with the maternal serum: significantly low
